Data set [1] relates to powdery mildew. The experiment in a line: Powdery mildew disease in bean plants, spray. The data set is classed as in vivo. The note with it: 400 ppm spray. The source says: The A-32887 compounds are also useful in the treatment of certain plant diseases.
Data set [2] in a line: Acute toxicity, intraperitoneal, mice. The class given is in vivo. The note with it: intraperitoneally.
Data set [3] is described as follows: Ruminal VFA in fistulated feed-lot cattle (Table XV). The data set is classed as in vivo. The note with it: 30 g/ton, 24-day treatment. The source says: The procedure used in testing cattle in this manner is also described in Raun's U.S. Pat. No. 3,839,557 (see Example 9). Table XV summarizes the results of such a test with A-32887 (Na-K salt) wherein five feed-lot cattle weighing approximately 425 kg. were in each group and the mean percent increases in ruminal propionate concentration were averaged over four analyses in a 24-day treatment period.

Data set [4] concerns guinea pig left atria. Briefly: Cardiac contractility of guinea pig left atria. The settings on record: 10^-5 molar; percentage of maximal force elicited by a challenge dose of norepinephrine. From the text:
The A-32887 compounds are potential cardiotonic agents. In tests using guinea pig left atria, A-32887 (Na-K salt) increased cardiac contractility. Response to this test is expressed as a percentage of the maximal force that could be elicited by a challenge dose of norepinephrine. A-32887 (Na-K salt), at a 10^-5 molar concentration, increased cardiac contractility by 28.0 ± 7.1 percent.

For `CO[C@H]1CC[C@H](OC2[C@@H](C)[C@@](C)(O)O[C@H]([C@H]3CC[C@H]([C@@H]4CC[C@H]([C@@]5(C)O[C@]6(O[C@H](C[C@@H]7O[C@](O)([C@@H](O)C(=O)O)[C@@H](C)[C@H](OC)[C@@]7(C)OC)C[C@@H](OC)[C@H]6C)[C@H](C)[C@H]5OC)O4)O3)[C@H]2C)O[C@@H]1C.[K+].[Na+]` (stereo partly shown) [A-32887 (Na-K salt)], in data set [1], the “inhibition of powdery mildew disease” value is reported as “inhibits powdery mildew disease”. This compound yielded an LD50 in data set [2] of 37.5 mg/kg × 1. Moreover, the “Molar % Butyrate” value in data set [3] (control 8.1) is recorded as 9.6 Molar %. For the same compound, the “Molar % Propionate” value in data set [3] (control 17.4, * P<0.01) was determined as 27.1 Molar %. Moreover, in data set [3] (control 74.5, * P<0.01), the “Molar % Acetate” value is 63.3 Molar %. The “Total VFA” value in data set [3] (control 79.9) came to 79.6 mM/1. Also, in data set [4], the “increase in cardiac contractility” value turned out to be 28.0 ± 7.1%.

For the origin of these results see patent publication US4133876A, “Antibiotic A-32887 and process for production thereof” (Eli Lilly and Company, priority 1977, dated 1979).
